“Also recorded” adds a separate entry of the source.
What was measured:
[1] = test system: MCF-7 human mammary cancer cell line; details: human MCF-7 cells in culture; cited from earlier work
[2] = test system: rats, cats, chicks, and guinea pigs; details: animals including rats; cited from earlier work
women = details: clinical; cited from earlier work
[3] = test system: male and female Sprague-Dawley rats; assay: Experiment 1: chronic treatment of male and female rats, 4 weeks; format: in vivo, rat; details: mean ± SEM; for Food intake: n = 5
Experimental: Twenty-five male and 25 female Sprague-Dawley rats, 9-10 weeks of age, were randomly assigned to groups of five animals, respectively, as a control group (no treatment) (C), for treatment with vehicle only (V), estradiol (E), (±)-Z-BDDA, or (+)-Z-BDDA. Each animal in group V received a daily 0.1 cc injection of a 10% ethanol-90% olive oil solution; the other treatments received their respective compound as a daily 0.1 cc injection, e.g., 2.5 μg of compound/g of body weight, in a 10% ethanol-90% olive oil solution. A temperature of 21° C. and an artificial 12-h light-dark cycle was maintained in the animal room. All animals were maintained on standard chow in powdered form for four weeks, then sacrificed after an overnight fast under i.p. pentobarbital anesthesia (50 mg/kg). Animal weight and food intake were measured weekly during the study, and the subsequent food-efficiency ratio [FER(g of weight change/g of food intake)] was determined. During sacrifice, blood was collected (via cardiac puncture) for cholesterol measurements. Immediately following sacrifice the fat pads and reproductive organs were removed and weighed.
(§1) Experiments 1 and 2 employed a randomized design. All data were analyzed by one-way analysis of variance (ANOVA,)and post-hoc comparisons were made with Tukey pairwise comparisons test. Significance was confirmed at p≦0.05 (SYSTAT 7.0, SPSS INC., 1997), and all values are reported as means±standard error of the mean.

[4] = test system: male and female Wistar rats; assay: Experiment 2: chronic treatment of male and female rats, 5-6 weeks; format: in vivo, rat; details: for Food intake: n = 5
Experimental: Twenty-five male and 25 female Wistar rats, 7-8 weeks of age, were randomly assigned to groups of five animals, respectively, for treatment with vehicle only (V), estradiol (E), (±)-Z-BDDA, (+)-Z-BDDA, or (−)-Z-BDDA. Each animal in group V received a daily 0.1 cc injection of a 10% ethanol-90% olive oil solution; the other treatments received their respective compound as a daily 0.1 cc injection, e.g., 2.5 μg of compound/g of body weight, in a 10% ethanol-90% olive oil solution. A temperature of 21° C. and an artificial 12-h light-dark cycle were maintained in the animal room. All animals were maintained on standard chow in powdered form, the males for five weeks and the females for six weeks, then sacrificed after an overnight fast under i.p. pentobarbital anesthesia (50 mg/kg). Animal weight and food intake were measured weekly during the study and subsequent FER values were determined. During sacrifice, blood was collected (via cardiac puncture) for glucose, luteinizing hormone, prolactin and testosterone measurements. The amounts of luteinizing hormone, prolactin and testosterone were measured to help elucidate the target tissue of the respective compounds in male and female rats. Immediately following sacrifice the fat pads and reproductive organs were removed and weighed.
as §1

[5] = test system: uterine cytosolic estrogen receptors (ER); details: competitive binding-inhibition, relative to E2; cited from earlier work
female mice = details: E2 5 g/animal/day, (±)-Z-BDDA 5, 50, and 500 g/animal/day, versus control group; cited from earlier work
[6] = even at 1000-times the estrogenic dosage; cited from earlier work
[7] = in vivo assays, compared with estradiol; cited from earlier work
[8] = female rats, 2.5 ug/g of body weight daily
[9] = male rats, 2.5 ug/g of body weight daily
[10] = female rats, 2.5 ug/g of body weight daily, six weeks, mean ± SEM
[11] = male rats, 2.5 ug/g of body weight daily, five weeks, mean ± SEM

**Q.** With `CC[C@@H](c1ccc2cc(OC)ccc2c1)C(C)(C)C(=O)O` [compound 2, (−)-3-[2-(6-methoxynaphthyl)]-2,2-dimethyl-pentanoic acid] as the compound, how does the “MCF-7 cell proliferation (estrogenicity)” value [1] read?
**A.** Its value is “very little effect”.

**Q.** What about the “estrogenic activity (estrogenicity) in animals” value [2] of the same compound?
**A.** The value was “strongest estrogenic activity; also recorded: highly estrogenic in animals, equivalent to 17β-estradiol”.

**Q.** What about the “estrogenic response in women / humans” value (women) of the same compound?
**A.** Its value is “high dosages were required to elicit strong estrogenic responses”.

**Q.** Which “Uterus/testis weight (g)” value ([3]; female rats (uterus), 2.5 ug/g of body weight daily) does the source give for “(±)-Z-bisdehydrodoisynolic acid [(±)-Z-BDDA]” here?
**A.** Its value is 2.04 ± 0.45^1 g.

**Q.** What about the “Food intake” value ([3]; female rats, 2.5 ug/g of body weight daily injection) of the same compound?
**A.** The value was 318.2 ± 21.8 g.

**Q.** And the “FER (food efficiency ratio)” value ([3]; female rats, 2.5 ug/g of body weight daily, g of weight change/g of food intake)?
**A.** The value was −0.023 ± 0.027^1.

**Q.** And the “Cholesterol (mg/dl)” value [3, 8]?
**A.** The value was 30.1 ± 2.8^1 mg/dl.

**Q.** What about the “Visceral fat” value [3, 8] of the same compound?
**A.** The value was 1.3 ± 0.1 g.

**Q.** And the “Uterus/testis weight (g)” value ([3]; male rats (testis), 2.5 ug/g of body weight daily)?
**A.** The value was 0.72 ± 0.06^1,2 g.

**Q.** And the “Cholesterol (mg/dl)” value [3, 9]?
**A.** The value was 36.2 ± 2.6^1,2 mg/dl.

**Q.** And the “FER (food efficiency ratio)” value [3, 9]?
**A.** The value was −0.099 ± 0.009^1,2.

**Q.** What about the “Prostate weight (g)” value [3, 9] of the same compound?
**A.** Its value is 0.08 ± 0.02^1,2 g.

**Q.** What about the “Visceral fat (g)” value [3, 9] of the same compound?
**A.** The value was 4.5 ± 0.4^2 g.

**Q.** What about the “Food intake” value [3, 9] of the same compound?
**A.** Its value is 344.6 ± 15.5 g.

**Q.** And the “Uterus/testis weight (g)” value ([4]; female rats (uterus), 2.5 ug/g of body weight daily, six weeks, mean ± SEM)?
**A.** Its value is 4.25 ± 1.04^1 g.

**Q.** What about the “Blood glucose” value [4, 10] of the same compound?
**A.** Its value is 80.40 ± 5.66 mg/dL.

**Q.** What about the “FER (food efficiency ratio)” value [4, 10] of the same compound?
**A.** Its value is 0.017 ± 0.003^1,2.

**Q.** What about the “Food intake” value [4, 10] of the same compound?
**A.** The value was 704.0 ± 51.7 g.

**Q.** What about the “weight gain (percent weight change)” value ([4]; female rats, both experiments (FIGS. 2 and 3), 2.5 μg/g daily) of the same compound?
**A.** Its value is “repress weight gain slightly more than did (+)-Z-BDDA and E2”.

**Q.** And the “Uterus/testis weight (g)” value ([4]; male rats (testis), 2.5 ug/g of body weight daily, five weeks, mean ± SEM)?
**A.** Its value is 0.78 ± 0.02^1 g.

**Q.** What about the testosterone ([4]; male rats, 2.5 μg/g daily, compared to the vehicle) of the same compound?
**A.** Its testosterone is “less pronounced”.

**Q.** And the “Blood glucose” value [4, 11]?
**A.** Its value is 98.60 ± 14.00 mg/dL.

**Q.** What about the “FER (food efficiency ratio)” value [4, 11] of the same compound?
**A.** The value was −0.04 ± 0.01^1,2.

**Q.** What about the “Prostate weight” value [4, 11] of the same compound?
**A.** Its value is 0.16 ± 0.02 g.

**Q.** And the “Food intake” value [4, 11]?
**A.** Its value is 530.0 ± 33.0 g.

**Q.** What about the “binding affinity as fraction of that of E2” value [5] of the same compound?
**A.** The value was 0.01-0.03.

**Q.** What about the “MCF-7 cell proliferation (estrogenicity)” value [1] of the same compound?
**A.** The value was “high estrogenic potency”.

**Q.** And the “rate of weight gain” value (female mice)?
**A.** The value was “diminished”.

**Q.** What about the toxicity and carcinogenicity [6] of the same compound?
**A.** Its toxicity and carcinogenicity is “neither toxicity nor carcinogenicity”.

**Q.** And the “estrogenicity: vaginal cornification and uterotropism” value [7]?
**A.** Its value is “rivaling or even surpassing estradiol”.
